Laboratory results published in US10112918B2, “15-oxospiramilactone derivatives, preparation method and uses thereof” (Kunming Institute of Botany, The Chinese Academy of Sciences, priority 2013, dated 2018).

Tests used:
Type in all cases: cell-based
[1] = tested on: HL-60 (human promyelocytic leukemia cells); assay: MTT inhibition of tumor cell growth, HL-60; conditions: Homo sapiens, HL-60, Table 7 (first), alkaloid derivatives, 48 h
In short: (§1)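 IC50 values derive from a 5-concentration re-screen following a 40 μM primary test, with 48 h treatment and MTT colorimetry at 595 nm.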

[2] = tested on: SMMC-7721 (human hepatoma cells); assay: MTT inhibition of tumor cell growth, SMMC-7721; conditions: Homo sapiens, SMMC-7721, Table 7 (first), alkaloid derivatives, 48 h
In short: as §1

[3] = tested on: A-549 (Human lung adenocarcinoma cells); assay: MTT inhibition of tumor cell growth, A-549; conditions: Homo sapiens, A549, Table 7 (first), alkaloid derivatives, 48 h
In short: as §1

[4] = tested on: MCF-7 (human breast cancer cells); assay: MTT inhibition of tumor cell growth, MCF-7; conditions: Homo sapiens, MCF7, Table 7 (first), alkaloid derivatives, 48 h
In short: as §1

[5] = tested on: SW-480 (human colon cancer cells); assay: MTT inhibition of tumor cell growth, SW-480; conditions: Homo sapiens, SW480, Table 7 (first), alkaloid derivatives, 48 h, read-out: IC50 SW-480
In short: as §1

[6] = tested on: Wnt signaling pathway (Top-Flash reporter gene); assay: Top-Flash Wnt reporter gene assay in HEK293T cells with Wnt3a conditioned medium; conditions: Homo sapiens, HEK-293T, 6 h, read-out: IC50 (μM), inhibitory activity on the Wnt signaling pathway
In short: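 HEK293T transfected with TOP-flash (5 ng/well) plus GFP plasmid for normalization, then treated 6 h with mouse Wnt3a conditioned medium from L cells, with or without compound. GFP-normalized luciferase minus DMSO-only background, scaled to Wnt-induced activity; IC50 at 0.5 relative residual activity from 4-parameter logistic fit.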

## C=C1C(=O)[C@@]23CC[C@@H](CC2[C@@]24CCC[C@@](C)(CN(CCO)C2)C14)C(=C)[C@@H]3O (stereo partly drawn) [Compound 89]
[1]
  IC50: 4.82 µM
[2]
  IC50: 1.48 µM
[3]
  IC50: 3.04 µM
[4]
  IC50: 6.98 µM
[5]
  IC50: 9.84 µM
[6]
  IC50: 8.34 ± 0.9 µM

## C=C1C(=O)[C@]23CC[C@H]1CC2[C@@]12CCC[C@@](C)(CN(CCO)C1)C2CC3=O (stereo partly drawn) [Compound 91]
[1]
  IC50: 14.3 µM
[2]
  IC50: 15.2 µM
[3]
  IC50: 9.24 µM
[4]
  IC50: 15.7 µM
[5]
  IC50: 11.8 µM
[6]
  IC50: 49.4 ± 1.42 µM

## C=C1C(=O)[C@@]23CC[C@@H](CC2[C@@]24CCC[C@@](C)(CN(CCO)C2)C14)C(=C)C3=O (stereo partly drawn) [Compound 93]
[1]
  IC50: 6.61 µM
[2]
  IC50: 11.5 µM
[3]
  IC50: 6.5 µM
[4]
  IC50: 3.57 µM
[5]
  IC50: 2.81 µM
[6]
  IC50: 17 ± 1.28 µM
